These molecules were tested against T1, STAT6 (Homo sapiens, UniProt P42226) (assay: STAT6 Reporter Luciferase Assay (IL-13 stimulated HaCaT keratinocyte NanoLuc reporter cells)). Details: IL-13 stimulated HaCaT STAT6 NanoLuc reporter cells; read-out: Reporter EC50.
T1 construct: stably transfected HaCaT keratinocyte cell line, which expresses NanoLuc luciferase reporter gene under the transcriptional control of the STAT6 responsive promoter; endogenous in cells; host or cells: HaCaT keratinocyte reporter cell line (stably transfected with a NanoLuc reporter)
T1 sequence (P42226 1-847): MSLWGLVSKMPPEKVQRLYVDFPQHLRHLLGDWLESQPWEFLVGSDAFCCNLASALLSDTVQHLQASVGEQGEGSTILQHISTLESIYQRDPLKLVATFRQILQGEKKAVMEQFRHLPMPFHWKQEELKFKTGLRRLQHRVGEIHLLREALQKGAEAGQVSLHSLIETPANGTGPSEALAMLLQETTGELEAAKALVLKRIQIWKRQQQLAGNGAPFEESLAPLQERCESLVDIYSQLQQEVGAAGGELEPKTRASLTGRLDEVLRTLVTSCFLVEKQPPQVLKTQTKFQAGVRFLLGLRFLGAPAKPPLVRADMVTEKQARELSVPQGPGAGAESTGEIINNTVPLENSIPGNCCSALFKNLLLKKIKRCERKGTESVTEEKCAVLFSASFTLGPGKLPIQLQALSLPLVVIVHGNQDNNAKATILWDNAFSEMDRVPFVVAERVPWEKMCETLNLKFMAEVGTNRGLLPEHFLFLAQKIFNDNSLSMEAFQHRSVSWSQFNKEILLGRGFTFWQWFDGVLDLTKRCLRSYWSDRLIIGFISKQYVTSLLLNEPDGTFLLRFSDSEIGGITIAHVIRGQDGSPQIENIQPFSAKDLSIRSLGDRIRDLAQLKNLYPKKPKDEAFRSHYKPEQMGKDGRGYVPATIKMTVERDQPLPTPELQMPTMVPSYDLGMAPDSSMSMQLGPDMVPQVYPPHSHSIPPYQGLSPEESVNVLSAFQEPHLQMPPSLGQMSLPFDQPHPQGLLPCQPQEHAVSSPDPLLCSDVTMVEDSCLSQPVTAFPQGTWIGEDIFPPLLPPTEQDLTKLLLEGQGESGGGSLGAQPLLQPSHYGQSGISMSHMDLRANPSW
Assay type: cell-based
In short: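 HaCaT cells stably carrying a NanoLuc reporter driven by the STAT6-responsive IL-13Ra2 promoter were preincubated with compounds for 2 h at 37 °C in 2% FBS medium. Cells were then stimulated with 0.12 nM IL-13 for 4 h, and luminescence was read after Nano-Glo substrate. Compounds ran as 11-point 4-fold dilutions in duplicate.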

EC50	SMILES
3 nM	CC(C)n1nc(C(=O)NCc2ccc(NC(=O)N3CCC(C)(N(C)C)C3)c(F)c2)c2c1[C@@H](C)CN(c1ccc(C(=O)N(C)C)cc1)C2 (stereo partly drawn) [Example 679, (7S)-N-(4-(3-(dimethylamino)-3-methylpyrrolidine-1-carboxamido)-3-fluorobenzyl)-5-(4-(dimethylcarbamoyl)phenyl)-1-isopropyl-7-methyl-4,5,6,7-tetrahydro-1H-pyrazolo[4,3-c]pyridine-3-carboxamide]
2 nM	CC(C)n1nc(C(=O)NCc2ccc(NC(=O)N3CCN(C)[C@@H](C)C3)c(F)c2)c2c1[C@@H](C)CN(c1ccc(C(=O)N(C)C)cc1)C2 [Example 680, (S)-5-(4-(dimethylcarbamoyl)phenyl)-N-(4-((S)-3,4-dimethylpiperazine-1-carboxamido)-3-fluorobenzyl)-1-isopropyl-7-methyl-4,5,6,7-tetrahydro-1H-pyrazolo[4,3-c]pyridine-3-carboxamide]
3 nM	CC(C)n1nc(C(=O)NCc2ccc(NC(=O)N3CC[C@@H](CN(C)C)C3)c(F)c2)c2c1[C@@H](C)CN(c1ccc(C(=O)N(C)C)cc1)C2 [Example 681, (S)-N-(4-((S)-3-((dimethylamino)methyl)pyrrolidine-1-carboxamido)-3-fluorobenzyl)-5-(4-(dimethylcarbamoyl)phenyl)-1-isopropyl-7-methyl-4,5,6,7-tetrahydro-1H-pyrazolo[4,3-c]pyridine-3-carboxamide]
4 nM	CC(C)n1nc(C(=O)NCc2ccc(NC(=O)N3CCC[C@@H](N(C)C)C3)c(F)c2)c2c1[C@@H](C)CN(c1ccc(C(=O)N(C)C)cc1)C2 [Example 682, (S)-N-(4-((R)-3-(dimethylamino)piperidine-1-carboxamido)-3-fluorobenzyl)-5-(4-(dimethylcarbamoyl)phenyl)-1-isopropyl-7-methyl-4,5,6,7-tetrahydro-1H-pyrazolo[4,3-c]pyridine-3-carboxamide]
3 nM	CC(C)n1nc(C(=O)NCc2ccc(NC(=O)N3CCC[C@H](N(C)C)C3)c(F)c2)c2c1[C@@H](C)CN(c1ccc(C(=O)N(C)C)cc1)C2 [Example 683, (S)-N-(4-((S)-3-(dimethylamino)piperidine-1-carboxamido)-3-fluorobenzyl)-5-(4-(dimethylcarbamoyl)phenyl)-1-isopropyl-7-methyl-4,5,6,7-tetrahydro-1H-pyrazolo[4,3-c]pyridine-3-carboxamide]
2 nM	CC(C)n1nc(C(=O)NCc2ccc(NC(=O)N3CC[C@H](CN(C)C)C3)c(F)c2)c2c1[C@@H](C)CN(c1ccc(C(=O)N(C)C)cc1)C2 [Example 684, (S)-N-(4-((R)-3-((dimethylamino)methyl)pyrrolidine-1-carboxamido)-3-fluorobenzyl)-5-(4-(dimethylcarbamoyl)phenyl)-1-isopropyl-7-methyl-4,5,6,7-tetrahydro-1H-pyrazolo[4,3-c]pyridine-3-carboxamide]
2 nM	CC(C)n1nc(C(=O)NCc2ccc(NC(=O)NC3(C)CNC3)c(F)c2)c2c1[C@@H](C)CN(c1ccc(C(=O)N(C)C)cc1)C2 [Example 685, (S)-5-(4-(dimethylcarbamoyl)phenyl)-N-(3-fluoro-4-(3-(3-methylazetidin-3-yl)ureido)benzyl)-1-isopropyl-7-methyl-4,5,6,7-tetrahydro-1H-pyrazolo[4,3-c]pyridine-3-carboxamide]
1 nM	CC(C)n1nc(C(=O)NCc2ccc(NC(=O)N3CCN(C)[C@H](C)C3)c(F)c2)c2c1[C@@H](C)CN(c1ccc(C(=O)N(C)C)cc1)C2 [Example 686, (S)-5-(4-(dimethylcarbamoyl)phenyl)-N-(4-((R)-3,4-dimethylpiperazine-1-carboxamido)-3-fluorobenzyl)-1-isopropyl-7-methyl-4,5,6,7-tetrahydro-1H-pyrazolo[4,3-c]pyridine-3-carboxamide]
1 nM	CC(C)n1nc(C(=O)NCc2ccc(NC(=O)N3CCN4CCCC[C@@H]4C3)c(F)c2)c2c1[C@@H](C)CN(c1ccc(C(=O)N(C)C)cc1)C2 [Example 687, (R)-N-(4-(((S)-5-(4-(dimethylcarbamoyl)phenyl)-1-isopropyl-7-methyl-4,5,6,7-tetrahydro-1H-pyrazolo[4,3-c]pyridine-3-carboxamido)methyl)-2-fluorophenyl)octahydro-2H-pyrido[1,2-a]lpyrazine-2-carboxamide]
1 nM	COC[C@H]1CN(C(=O)Nc2ccc(CNC(=O)c3nn(C(C)C)c4c3CN(c3ccc(C(=O)N(C)C)cn3)C[C@@H]4C)cc2F)CCN1 [Example 688, (S)-5-(5-(dimethylcarbamoyl)pyridin-2-yl)-N-(3-fluoro-4-((R)-3-(methoxymethyl)piperazine-1-carboxamido)benzyl)-1-isopropyl-7-methyl-4,5,6,7-tetrahydro-1H-pyrazolo[4,3-c]pyridine-3-carboxamide]
1 nM	COC[C@H]1CN(C(=O)Nc2ccc(CNC(=O)c3nn(C(C)C)c4c3CN(c3ccc(C(=O)N(C)C)cc3)C[C@@H]4C)cc2F)CCN1 [Example 689, (S)-5-(4-(dimethylcarbamoyl)phenyl)-N-(3-fluoro-4-((R)-3-(methoxymethyl)piperazine-1-carboxamido)benzyl)-1-isopropyl-7-methyl-4,5,6,7-tetrahydro-1H-pyrazolo[4,3-c]pyridine-3-carboxamide]
1 nM	CC(C)n1nc(C(=O)NCc2ccc(NC(=O)N3CCN4CCC[C@@H]4C3)c(F)c2)c2c1[C@@H](C)CN(c1ccc(C(=O)N(C)C)cn1)C2 [Example 690, (S)-5-(5-(dimethylcarbamoyl)pyridin-2-yl)-N-(3-fluoro-4-((R)-octahydropyrrolo[1,2-a]lpyrazine-2-carboxamido)benzyl)-1-isopropyl-7-methyl-4,5,6,7-tetrahydro-1H-pyrazolo[4,3-c]pyridine-3-carboxamide]
1 nM	CC(C)n1nc(C(=O)NCc2ccc(NC(=O)N3CCN4CCC[C@@H]4C3)cc2)c2c1[C@@H](C)CN(c1ccc(C(=O)N(C)C)cn1)C2 [Example 691, (S)-5-(5-(dimethylcarbamoyl)pyridin-2-yl)-1-isopropyl-7-methyl-N-(4-((R)-octahydropyrrolo[1,2-a]pyrazine-2-carboxamido)benzyl)-4,5,6,7-tetrahydro-1H-pyrazolo[4,3-c]pyridine-3-carboxamide]
342 nM	CC(C)n1nc(C(=O)NCc2ccc(NC(=O)N(C)CCC(=O)O)c(F)c2)c2c1[C@@H](C)CN(c1ccc(C(=O)N(C)C)cc1)C2 [Example 733, (S)-3-(3-(4-((5-(4-(dimethylcarbamoyl)phenyl)-1-isopropyl-7-methyl-4,5,6,7-tetrahydro-1H-pyrazolo[4,3-c]pyridine-3-carboxamido)methyl)-2-fluorophenyl)-1-methylureido)propanoic acid]
38 nM	CC(C)n1nc(C(=O)NCc2ccc(NC(=O)N3CCC(C(=O)O)CC3)c(F)c2)c2c1[C@@H](C)CN(c1ccc(C(=O)N(C)C)cc1)C2 [Example 734, (S)-1-((4-((5-(4-(dimethylcarbamoyl)phenyl)-1-isopropyl-7-methyl-4,5,6,7-tetrahydro-1H-pyrazolo[4,3-c]pyridine-3-carboxamido)methyl)-2-fluorophenyl)carbamoyl)piperidine-4-carboxylic acid]
1 nM	CC(C)n1nc(C(=O)NCc2ccc(NC(=O)N3CCN(C)[C@@H](C)C3)cc2)c2c1[C@@H](C)CN(c1ccc(C(=O)N(C)C)cc1)C2 [Example 735, (S)-5-(4-(dimethylcarbamoyl)phenyl)-N-(4-((S)-3,4-dimethylpiperazine-1-carboxamido)benzyl)-1-isopropyl-7-methyl-4,5,6,7-tetrahydro-1H-pyrazolo[4,3-c]pyridine-3-carboxamide]
1 nM	CC(C)n1nc(C(=O)NCc2ccc(NC(=O)N3CC[C@@H](CN(C)C)C3)cc2)c2c1[C@@H](C)CN(c1ccc(C(=O)N(C)C)cc1)C2 [Example 736, (S)-N-(4-((S)-3-((dimethylamino)methyl)pyrrolidine-1-carboxamido)benzyl)-5-(4-(dimethylcarbamoyl)phenyl)-1-isopropyl-7-methyl-4,5,6,7-tetrahydro-1H-pyrazolo[4,3-c]pyridine-3-carboxamide]
1 nM	CC(C)n1nc(C(=O)NCc2ccc(NC(=O)N3CCN4CCCC[C@H]4C3)cc2)c2c1[C@@H](C)CN(c1ccc(C(=O)N(C)C)cc1)C2 [Example 737, (S)-N-(4-(((S)-5-(4-(dimethylcarbamoyl)phenyl)-1-isopropyl-7-methyl-4,5,6,7-tetrahydro-1H-pyrazolo[4,3-c]pyridine-3-carboxamido)methyl)phenyl)octahydro-2H-pyrido[1,2-a]pyrazine-2-carboxamide]
